What is called EC50 is the midpoint of the concentration-response curve.

Structures are written as SMILES.

The target in this assay is T1, human OX2R (Homo sapiens, UniProt O43614).
T1 construct: host or cells: CHO-K1 (Chinese Hamster Ovary K1)
T1 sequence (O43614 1-444): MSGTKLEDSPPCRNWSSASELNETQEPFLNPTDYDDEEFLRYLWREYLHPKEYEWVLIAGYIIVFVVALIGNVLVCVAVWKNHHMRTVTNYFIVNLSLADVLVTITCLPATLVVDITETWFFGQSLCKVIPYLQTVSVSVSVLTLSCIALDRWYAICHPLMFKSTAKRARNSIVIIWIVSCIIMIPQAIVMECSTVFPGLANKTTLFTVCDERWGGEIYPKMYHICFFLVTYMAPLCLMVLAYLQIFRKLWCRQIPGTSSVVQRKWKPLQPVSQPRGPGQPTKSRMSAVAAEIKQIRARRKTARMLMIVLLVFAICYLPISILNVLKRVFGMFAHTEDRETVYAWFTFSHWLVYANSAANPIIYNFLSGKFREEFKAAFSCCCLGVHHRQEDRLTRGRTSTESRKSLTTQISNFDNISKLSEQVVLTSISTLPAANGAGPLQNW
Description: Evaluation of OX2R agonist activity (intracellular calcium, CHO-K1 cells with forced expression of human OX2R). The format is cell-based. The settings on record: CHO-K1 cells expressing human OX2R; 100% = 5 µM of the reference compound; read-out: hOX2R EC50. As to the method: Evaluation of OX2R agonist activity
Chinese Hamster Ovary K1 (CHO-K1) cells (GenScript) with forced expression of human OX2R were seeded onto a 384 well microplate (Corning) at 7500 cells/well and cultured for 24 hours. 20 µL of the loading buffer (25 mM HEPES containing 1.25 mM of Probenecid and 2.5 µg/mL of Fluo 4-AM at final concentration, Hank's balanced salt solution, 0.06% Pluronic F-127, Quenching buffer) in the Calcium Kit II (DOJINDO LABORATORIES) was added, and the microplate was allowed to stand for 30 minutes. A reference compound (Example435 of WO 2019/027058, N-[(2S,3S)-2-[[3-(3,5-difluorophenyl)-2-fluoro-phenyl]methyl]-1-(2-hydroxy-2-methylpropanoyl)pyrrolidin-3-yl]ethanesulfonamide) or the test compound was added in 10 µL, and changes in intracellular calcium ion concentration were measured using FDSS7000EX (Hamamatsu Photonics K.K.) as a fluorescence intensity ratio obtained upon dual wavelength excitation at 480 nm and 540 nm. Note that the reference compound or test compound was dissolved in DMSO (final concentration of DMSO was 0.5%) and diluted with an assay buffer (20 mM HEPES, Hank's balanced salt solution, 0.1% BSA). The difference between the maximum and minimum fluorescence values between 5 and 7 seconds after the addition of the test compound or reference compound was used as the indicator. The value of wells to which the assay buffer containing no test compound was added was defined as 0%, and the value of wells to which 5 µM of the reference compound was added was defined as 100%. The 50% effective concentration (EC50 value) was determined from the values obtained when various concentrations of the test compound were added. […]
Background: A change in cytosolic calcium serves as a functional read-out for many receptors and channels.
On to `CS(=O)(=O)N[C@H]1C2CC(C2)N(C(=O)C2(C#N)CC2)[C@H]1Cc1cccc(-c2cc(F)cc(F)c2)c1F` [Example 33, N-{(3S,4S)-2-[(1-Cyanocyclopropyl)carbonyl]-3-[(2,3',5'-trifluoro[biphenyl]-3-yl)methyl]-2-azabicyclo[3.1.1]heptan-4-yl}methanesulfonamide], for which the EC50 came to 326 nM.
As for `CS(=O)(=O)NC1C2CC(C2)N(C(=O)C2CC2)C1Cc1ccnc(-c2cc(F)cc(F)c2)c1F` (single isomer, unassigned) [Example 22, N-[2-(Cyclopropylcarbonyl)-3-{[2-(3,5-difluorophenyl)-3-fluoropyridin-4-yl]methyl}-2-azabicyclo[3.1.1]heptan-4-yl]methanesulfonamide], the EC50 is 80 nM.
With `CC[C@@H](O)C(=O)N1C2CC(C2)[C@H](NS(C)(=O)=O)[C@@H]1Cc1cccc(-c2cc(F)cc(F)c2)c1F` [Example 26, N-{(3S,4S)-2-[(2R)-2-Hydroxybutanoyl]-3-[(2,3',5'-trifluoro[biphenyl]-3-yl)methyl]-2-azabicyclo[3.1.1]heptan-4-yl}methanesulfonamide], the EC50 is 35 nM.
For the compound `C=CS(=O)(=O)NC1C(Cc2cc(F)cc(-c3ccccc3)c2F)N(C(=O)[C@@H](C)O)C2CC1(F)C2` (single isomer, unassigned) [Example 96], the EC50 was 9.9 nM.
Then `C[C@@H](O)C(=O)N1C2CC(C2)[C@H](NS(C)(=O)=O)[C@@H]1Cc1cccc(-c2cccc(C3CC3)c2)c1F` [Example 41, N-{(3S,4S)-3-[(3'-Cyclopropyl-2-fluoro[biphenyl]-3-yl)methyl]-2-[(2R)-2-hydroxypropanoyl]-2-azabicyclo[3.1.1]heptan-4-yl}methanesulfonamide], with 31 nM.
Then `CCC(=O)N1C2CC(C2)[C@H](NS(C)(=O)=O)[C@@H]1Cc1cccc(-c2ccccc2)c1F` [Example 56, N-{(3S,4S)-3-[(2-Fluoro[biphenyl]-3-yl)methyl]-2-propanoyl-2-azabicyclo[3.1.1]heptan-4-yl}methanesulfonamide], with 244 nM; and `CS(=O)(=O)N[C@@H]1[C@H](Cc2cccc(-c3ccccc3)c2F)N(C(=O)[C@@H]2C[C@@H]2F)C2CC1(F)C2` [Example 66, N-[(3S,4R)-5-Fluoro-3-[(2-fluoro[biphenyl]-3-yl)methyl]-2-{[(1S,2S)-2-fluorocyclopropyl]carbonyl}-2-azabicyclo[3.1.1]heptan-4-yl]methanesulfonamide], with 57 nM; and `[2H]C([2H])([2H])[C@@]([2H])(O)C(=O)N1C2CC(F)(C2)[C@H](NS(=O)(=O)CC)[C@@H]1Cc1cccc(-c2ccccc2)c1F` [Example 90, N-{(3S,4R)-5-Fluoro-3-[(2-fluoro[biphenyl]-3-yl)methyl]-2-[(2R)-2-hydroxy(^2H4)propanoyl]-2-azabicyclo[3.1.1]heptan-4-yl}ethanesulfonamide], with 21 nM.
For `CS(=O)(=O)N[C@H]1C2CC(C2)N(C(=O)[C@H]2CCCO2)[C@H]1Cc1cccc(-c2cc(F)cc(F)c2)c1F` [Example 17, N-{(3S,4S)-2-[(2R)-Tetrahydrofuran-2-ylcarbonyl]-3-[(2,3',5'-trifluoro[biphenyl]-3-yl)methyl]-2-azabicyclo[3.1.1]heptan-4-yl}methanesulfonamide] the value was 108 nM.
On to `CO[C@H](C)C(=O)N1C2CC(C2)[C@H](NS(C)(=O)=O)[C@@H]1Cc1cccc(-c2cc(F)cc(F)c2)c1F` [Example 48, N-{(3S,4S)-2-[(2R)-2-Methoxypropanoyl]-3-[(2,3',5'-trifluoro[biphenyl]-3-yl)methyl]-2-azabicyclo[3.1.1]heptan-4-yl}methanesulfonamide], for which the EC50 came to 33 nM.
As for `C[C@@H](O)C(=O)N1C2CC(C2)[C@H](NS(C)(=O)=O)[C@@H]1Cc1cccc(-c2cccc(OC(F)(F)F)c2)c1F` [Example 42, N-{(3S,4S)-3-{[2-Fluoro-3'-(trifluoromethoxy)[biphenyl]-3-yl]methyl}-2-[(2R)-2-hydroxypropanoyl]-2-azabicyclo[3.1.1]heptan-4-yl}methanesulfonamide], the EC50 is 28 nM.
For `CC(C)(F)C(=O)N1C2CC(F)(C2)[C@H](NS(C)(=O)=O)[C@@H]1Cc1cccc(-c2ccccc2)c1F` (single isomer, unassigned) [Example 85] the value was 275 nM; for `CS(=O)(=O)NC1C2CC(C2)N(C(=O)C2CC2)C1Cc1ccnc(-c2cccc(Cl)c2)c1F` (single isomer, unassigned) [Example 60, N-[3-{[2-(3-Chlorophenyl)-3-fluoropyridin-4-yl]methyl}-2-(cyclopropylcarbonyl)-2-azabicyclo[3.1.1]heptan-4-yl]methanesulfonamide], 75 nM; for `CCOC(=O)N1C2CC(C2)[C@H](NS(C)(=O)=O)[C@@H]1Cc1cccc(-c2ccccc2)c1F` [Example 65, Ethyl (3S,4S)-3-[(2-fluoro[biphenyl]-3-yl)methyl]-4-[(methylsulfonyl)amino]-2-azabicyclo[3.1.1]heptane-2-carboxylate], 393 nM.
Then `CC(C)(O)C(=O)N1C2CC(C2)[C@H](NS(C)(=O)=O)[C@@H]1Cc1cccc(-c2cccc(F)c2F)c1F` [Example 8, N-{(3S,4S)-2-(2-Hydroxy-2-methylpropanoyl)-3-[(2,2',3'-trifluoro[biphenyl]-3-yl)methyl]-2-azabicyclo[3.1.1]heptan-4-yl}methanesulfonamide], with 83 nM; and `CS(=O)(=O)N[C@H]1C2CC(C2)N(C(=O)NCC2CC2)[C@H]1Cc1cccc(-c2cc(F)cc(F)c2)c1F` [Example 39, (3S,4S)-N-(Cyclopropylmethyl)-4-[(methylsulfonyl)amino]-3-[(2,3',5'-trifluoro[biphenyl]-3-yl)methyl]-2-azabicyclo[3.1.1]heptane-2-carboxamide], with 94 nM; and `C[C@@H](O)C(=O)N1C2CC(C2)[C@H](NS(C)(=O)=O)[C@@H]1Cc1cccc(-c2cccc(C3CC3)n2)c1F` [Example 43, N-{(3S,4S)-3-[3-(6-Cyclopropylpyridin-2-yl)-2-fluorobenzyl]-2-[(2R)-2-hydroxypropanoyl]-2-azabicyclo[3.1.1]heptan-4-yl}methanesulfonamide], with 49 nM.
Consider `CS(=O)(=O)N[C@@H]1[C@H](Cc2cccc(-c3ccccc3)c2F)N(C(=O)C2(O)CC2)C2CC1(F)C2` [Example 71, N-{(3S,4R)-5-Fluoro-3-[(2-fluoro[biphenyl]-3-yl)methyl]-2-[(1-hydroxycyclopropyl)carbonyl]-2-azabicyclo[3.1.1]heptan-4-yl}methanesulfonamide], for which the EC50 came out at 39 nM.
Turning to `CCS(=O)(=O)N[C@H]1C2CC(C2)N(C(=O)[C@@H](C)O)[C@H]1Cc1cccc(-c2ccccc2)c1F` (single isomer, unassigned) [Example 80], the EC50 stood at 16 nM.
On to `C[C@H](O)C(=O)N1C2CC(C2)[C@H](NS(C)(=O)=O)[C@@H]1Cc1cccc(-c2cc(F)cc(F)c2)c1F` [Example 15, N-{(3S,4S)-2-[(2S)-2-Hydroxypropanoyl]-3-[(2,3',5'-trifluoro[biphenyl]-3-yl)methyl]-2-azabicyclo[3.1.1]heptan-4-yl}methanesulfonamide], for which the EC50 came to 303 nM.
As for `CCS(=O)(=O)NC1C2CC(C2)N(C(=O)C23CC(C2)C3)C1Cc1cccc(-c2cc(F)cc(F)c2)c1F` (single isomer, unassigned) [Example 5, N-{2-(Bicyclo[1.1.1]pentan-1-ylcarbonyl)-3-[(2,3',5'-trifluoro[biphenyl]-3-yl)methyl]-2-azabicyclo[3.1.1]heptan-4-yl}ethanesulfonamide], the EC50 worked out at 239 nM.
`CC(=O)N1C2CC(F)(C2)[C@H](NS(C)(=O)=O)[C@@H]1Cc1cccc(-c2cccc(Cl)c2)c1F` [Example 46, N-{(3S,4R)-2-Acetyl-3-[(3'-chloro-2-fluoro[biphenyl]-3-yl)methyl]-5-fluoro-2-azabicyclo[3.1.1]heptan-4-yl}methanesulfonamide]: the EC50 came out at 106 nM.
For `CS(=O)(=O)N[C@@H]1[C@H](Cc2cccc(-c3ccccc3)c2F)N(C(=O)c2cocn2)C2CC1(F)C2` [Example 55, N-[(3S,4R)-5-Fluoro-3-[(2-fluoro[biphenyl]-3-yl)methyl]-2-(1,3-oxazol-4-ylcarbonyl)-2-azabicyclo[3.1.1]heptan-4-yl]methanesulfonamide] the value was 591 nM.

(Values after EP4635944A1, “2-AZABICYCLO[3.1.1]HEPTANE COMPOUND” (Daiichi Sankyo Company, Limited, priority 2022, dated 2024).)
